Measurements reported in the NIST ThermoML archive (doi:10.1016/j.jct.2016.08.001).
± gives the expanded uncertainty stated by the source.

Key:
[1] = 100 kPa, Liquid; for speed of sound: Frequency=3 MHz, Sing-around technique in a fixed-path interferometer; for mass density: Vibrating tube method
[2] = refractive index (Na D-line) (dimensionless); conditions: 100 kPa, Liquid, Standard Abbe refractometry
[3] = xn = mol fraction of the nth substance listed; conditions: 100 kPa, Liquid, x1 = 1; for speed of sound: Frequency=3 MHz, Sing-around technique in a fixed-path interferometer; for mass density: Vibrating tube method
[4] = refractive index (Na D-line) (dimensionless); xn = mol fraction of the nth substance listed; conditions: 100 kPa, Liquid, Standard Abbe refractometry, x1 = 1

Compound	speed of sound ([1]; 298.15 K) [m/s]	mass density ([1]; 298.15 K) [kg/m3]	speed of sound ([1]; 303.15 K) [m/s]	mass density ([1]; 303.15 K) [kg/m3]	speed of sound ([1]; 308.15 K) [m/s]	mass density ([1]; 308.15 K) [kg/m3]	speed of sound ([1]; 313.15 K) [m/s]	mass density ([1]; 313.15 K) [kg/m3]	speed of sound ([1]; 318.15 K) [m/s]	mass density ([1]; 318.15 K) [kg/m3]	speed of sound ([1]; 323.15 K) [m/s]	mass density ([1]; 323.15 K) [kg/m3]	refractive index ([2]; 298.15 K)	refractive index ([2]; 303.15 K)	refractive index ([2]; 308.15 K)	refractive index ([2]; 313.15 K)	refractive index ([2]; 318.15 K)	refractive index ([2]; 323.15 K)	speed of sound ([3]; 298.15 K) [m/s]	mass density ([3]; 298.15 K) [kg/m3]	further results
Nc1ccccc1 [aniline]	1636.8 ± 1.5	1017.1 ± 1	1617.5 ± 1.5	1012.7 ± 1	1598.3 ± 1.5	1008.4 ± 1	1579.1 ± 1.5	1004.1 ± 1	1560 ± 1.5	999.7 ± 1	1540.9 ± 1.5	995.4 ± 1	1.5826 ± 0.0016	1.5793 ± 0.0016	1.576 ± 0.0016	1.5727 ± 0.0016	1.5694 ± 0.0016	1.5661 ± 0.0016			
O=Cc1ccccc1 [benzaldehyde]	1457.3 ± 1.6	1041 ± 1	1438.9 ± 1.6	1036.5 ± 1	1420.6 ± 1.6	1032 ± 1	1402.4 ± 1.6	1027.5 ± 1	1384.4 ± 1.6	1023 ± 1	1366.4 ± 1.6	1018.4 ± 1	1.541 ± 0.0016	1.5383 ± 0.0016	1.5357 ± 0.0016	1.5332 ± 0.0016	1.5307 ± 0.0016	1.5282 ± 0.0016			
N#Cc1ccccc1 [benzonitrile]	1415.6 ± 1.5	1000.6 ± 1	1398.1 ± 1.5	995.9 ± 1	1380.8 ± 1.5	991.4 ± 1	1363.6 ± 1.5	986.9 ± 1	1346.5 ± 1.5	982.5 ± 1	1329.5 ± 1.5	977.9 ± 1	1.526 ± 0.0016	1.5235 ± 0.0016	1.5209 ± 0.0016	1.5184 ± 0.0016	1.5158 ± 0.0016	1.5133 ± 0.0016			
CCOC(=O)OCC [diethyl carbonate]	1177.5 ± 1.6	969.1 ± 1	1156.9 ± 1.6	963.5 ± 1	1136.6 ± 1.5	957.8 ± 1	1116.5 ± 1.5	952.1 ± 1	1096.5 ± 1.5	946.4 ± 1	1076.7 ± 1.5	940.7 ± 1	1.3825 ± 0.0016	1.3802 ± 0.0016	1.3779 ± 0.0016	1.3756 ± 0.0016	1.3733 ± 0.0016	1.371 ± 0.0016			
CCOC(=O)OCC [diethyl carbonate] + N#Cc1ccccc1																			1177.5 ± 1.6	969.1 ± 1	speed of sound ([3]; 303.15 K): 1156.9 ± 1.6 m/s; mass density ([3]; 303.15 K): 963.5 ± 1 kg/m3; speed of sound ([3]; 308.15 K): 1136.6 ± 1.5 m/s; mass density ([3]; 308.15 K): 957.8 ± 1 kg/m3; speed of sound ([3]; 313.15 K): 1116.5 ± 1.5 m/s; mass density ([3]; 313.15 K): 952.1 ± 1 kg/m3; speed of sound ([3]; 318.15 K): 1096.5 ± 1.5 m/s; mass density ([3]; 318.15 K): 946.4 ± 1 kg/m3; speed of sound ([3]; 323.15 K): 1076.7 ± 1.5 m/s; mass density ([3]; 323.15 K): 940.7 ± 1 kg/m3; refractive index ([4]; 298.15 K): 1.3825 ± 0.0016; refractive index ([4]; 303.15 K): 1.3802 ± 0.0016; refractive index ([4]; 308.15 K): 1.3779 ± 0.0016; refractive index ([4]; 313.15 K): 1.3756 ± 0.0016; refractive index ([4]; 318.15 K): 1.3733 ± 0.0016; refractive index ([4]; 323.15 K): 1.371 ± 0.0016
CCOC(=O)OCC [diethyl carbonate] + Nc1ccccc1																			1177.5 ± 1.6	969.1 ± 1	speed of sound ([3]; 303.15 K): 1156.9 ± 1.6 m/s; mass density ([3]; 303.15 K): 963.5 ± 1 kg/m3; speed of sound ([3]; 308.15 K): 1136.6 ± 1.5 m/s; mass density ([3]; 308.15 K): 957.8 ± 1 kg/m3; speed of sound ([3]; 313.15 K): 1116.5 ± 1.5 m/s; mass density ([3]; 313.15 K): 952.1 ± 1 kg/m3; speed of sound ([3]; 318.15 K): 1096.5 ± 1.5 m/s; mass density ([3]; 318.15 K): 946.4 ± 1 kg/m3; speed of sound ([3]; 323.15 K): 1076.7 ± 1.5 m/s; mass density ([3]; 323.15 K): 940.7 ± 1 kg/m3; refractive index ([4]; 298.15 K): 1.3825 ± 0.0016; refractive index ([4]; 303.15 K): 1.3802 ± 0.0016; refractive index ([4]; 308.15 K): 1.3779 ± 0.0016; refractive index ([4]; 313.15 K): 1.3756 ± 0.0016; refractive index ([4]; 318.15 K): 1.3733 ± 0.0016; refractive index ([4]; 323.15 K): 1.371 ± 0.0016
CCOC(=O)OCC [diethyl carbonate] + O=Cc1ccccc1																			1177.5 ± 1.6	969.1 ± 1	speed of sound ([3]; 303.15 K): 1156.9 ± 1.6 m/s; mass density ([3]; 303.15 K): 963.5 ± 1 kg/m3; speed of sound ([3]; 308.15 K): 1136.6 ± 1.5 m/s; mass density ([3]; 308.15 K): 957.8 ± 1 kg/m3; speed of sound ([3]; 313.15 K): 1116.5 ± 1.5 m/s; mass density ([3]; 313.15 K): 952.1 ± 1 kg/m3; speed of sound ([3]; 318.15 K): 1096.5 ± 1.5 m/s; mass density ([3]; 318.15 K): 946.4 ± 1 kg/m3; speed of sound ([3]; 323.15 K): 1076.7 ± 1.5 m/s; mass density ([3]; 323.15 K): 940.7 ± 1 kg/m3; refractive index ([4]; 298.15 K): 1.3825 ± 0.0016; refractive index ([4]; 303.15 K): 1.3802 ± 0.0016; refractive index ([4]; 308.15 K): 1.3779 ± 0.0016; refractive index ([4]; 313.15 K): 1.3756 ± 0.0016; refractive index ([4]; 318.15 K): 1.3733 ± 0.0016; refractive index ([4]; 323.15 K): 1.371 ± 0.0016
